Assay results published in patent publication US5283255A, “Wavelength-specific cytotoxic agents” (The University of British Columbia, priority 1992, dated 1994).
≈ marks a conversion by molar mass, not a printed value. Where two headings read alike, the source gives them in different places.

Assays:
[1] = In vivo cytotoxicity of Gp versus Hp conjugates (CAMAL-1 and anti-M1 procedures); conditions: at appropriate wavelengths
Protocol: The efficacy of the conjugates and of the Gp compounds of the invention in vivo is also assessed. For the CAMAL-1 and anti-Ml conjugates, the procedures are as described in the two Mew et al. papers referenced above in Example 4.

Normal lymphocytes = test: In vitro photosensitization, kill of normal lymphocytes; assay type: cell-based; conditions: Lymphocyte, read-out: LD50 (the source's name)
Protocol: (§1) Target cells were washed three times in serum-free medium (DME), counted and made up to a concentration of 10^7 cells per ml.
(§2) For the "affinity" assay, in the dark, 100 μl of the target cell suspension and 100 μl of the test or control compound were mixed. "Labeling" was allowed to continue for one hour at 4° C., and labeled cells were washed in the dark three times with 3 ml medium each time and resuspended in fresh medium. The resuspended cells were then subjected to light exposure at 300-750 nanometers for 30 minutes.
(§3) In a "direct" assay the target cells were irradiated immediately upon addition of the test or control compound.
(§4) The effect of irradiation was estimated using methods appropriate to the target cells.
(§5) The results of each determination on a variety of cells is shown in Table 1 (LD50 in the concentration of compound required to kill 50% of the cell population.)

[2] = test system: human erythrocytes (RBCS); test: In vitro photosensitization: hemolysis of human erythrocytes after irradiation; assay type: cell-based; conditions: Erythrocyte, 0.5 h, light 300-750 nm, 30 minutes, read-out: concentration required to obtain 50% hemolysis
Protocol: as §1, §2
When human erythrocytes (RBCS) were used as target cells, the hemolysis caused by irradiation of control (hematoporphyrin, Hp) labeled and green porphyrin (Gp) labeled cells were estimated visually. The Gp used in this Example was the BPD-DB of FIG. 2 wherein R^1 and R^2 are carboethoxy. […] Thus, a concentration of 250 ng/ml Hp was required under the above conditions to obtain 50% hemolysis while only 10 ng/ml of green porphyrin was required to hemolyze 50% of the RBCs.

KG-1 = test: In vitro photosensitization, kill of KG-1 cells; assay type: cell-based; conditions: Homo sapiens, read-out: LD50 (the source's name)
Protocol: as §1, §2, §3, §4, §5

K562 = test: In vitro photosensitization, kill of K562 cells; assay type: cell-based; conditions: Homo sapiens, read-out: LD50 (the source's name)
Protocol: as §1, §2, §3, §4, §5

P815 cells = test: Selective binding of green porphyrin: kill of labeled P815 cells; assay type: cell-based, murine; conditions: Mus musculus, P815, 0.5 h; labeled in dark 30 minutes, washed, 300-750 nm light 30 minutes; read-out: concentration at which 50% of the P815 cells were destroyed
Protocol: P815 cells were incubated as described in Example 1 using 1-200 ng/ml Hp or Gp. The Gp was BPD-DB of FIG. 2 wherein R^1 and R^2 are carboethoxy. The cells were labeled in the dark for 30 minutes, washed free of unabsorbed porphyrins, resuspended, and then exposed to 300-750 nm light for another 30 minutes. Viability of the cells was established by tritiated thymidine incorporation after labeling with 20 μCi/ml tritiated thymidine and incubating at 37° C. for 18 hours.

HL-60 = test: In vitro photosensitization, kill of HL-60 cells; assay type: cell-based; conditions: Homo sapiens, read-out: LD50 (the source's name)
Protocol: as §1, §2, §3, §4, §5

[3] = test system: murine mastocytoma cell line P815; test: In vitro photosensitization, kill of P815 cells; assay type: cell-based; conditions: Mus musculus; for EC50: P815, 0.5 h, 300-750 nm light for 30 minutes, read-out: concentration at which fifty percent of the P815 cells were killed; for IC50: P815, read-out: LD50 (the source's name)
Protocol: as §1, §2, §3
When the murine mastocytoma cell line P815 was used, the results were determined as follows:
The cells were labeled as above using concentration of 10-50 ng/ml of Hp as control and the BPD-DB as the test substance. The resuspended cells were treated with 300-750 nm light for 30 minutes and the viability resulting was estimated by direct counting using eosin-Y exclusion, a standard procedure for differentiating living from dead cells.
In other determinations conducted as above, the cells recovered from light exposure were assayed for viability by incubating them for 18 hours in 10 μCi/ml tritium-labeled thymidine according to the standard procedure whereby thymidine incorporation is equated with viability. The cells were harvested and radioactivity uptake was measured by a scintillation counter.
as §5

P815 tumors = test: In vivo cytotoxicity of immunoconjugates, P815 tumor-bearing DBA/2 mice
Protocol: The in vivo test relies on the indirect effect of a population of T-suppressor cells on tumors, which then serve as means to assess the effectiveness of the irradiation treatment. P815 mastocytoma cells grown in syngeneic DBA/2 mice stimulate T-suppressor cells specific for the tumor. These T-suppressor cells impede the development of specific T-killer cells which would otherwise aid in the regression of the tumor.
Therefore, in this assay, DBA/2 mice are injected in the right flank subcutaneously with 10^4 P815 cells to incorporate the tumor. On day eight, when the tumors are palpable (approx. 25-42 sq mm) the mice are randomly sorted into groups of eight and injected IV with 150 μl PBS containing nothing, Hp or Gp, B16G-Hp or B16G-Gp, B16G plus either drug, B16G alone or C-MAbHp or C-MAb-Gp. The levels of Hp are 50 Mg per animal in all cases and B16G 310 μg in all cases (where appropriate).
The animals are maintained in the dark for two hours and then exposed to strong light at 300-750 nm and 22.5 mW/cm^2. The animals were then treated normally and monitored on a daily basis.

tumor and normal tissues = conditions: mouse, in vivo
From the text: Biodistribution studies have been conducted using tritiated BPD-MA and BPD-MB.

## C=Cc1c(C)c2cc3nc(cc4[nH]c(cc5nc(cc1[nH]2)C1(C)C5=CC=C(C(=O)OCC)C1C(=O)OCC)c(C)c4CCC(=O)O)C(CCC(=O)O)=C3C (stereo not shown) [Gp]
[1]
  in vivo efficacy of Gp compound alone compared to Hp labeled conjugates: superior results
Normal lymphocytes; Affinity test
  IC50: 0.011 µg/mL
Normal lymphocytes; Direct test
  IC50: 0.0042 µg/mL
[2]
  EC50: 0.01 µg/mL
KG-1; KG-1, Affinity test
  IC50: 0.08 µg/mL
KG-1; KG-1, Direct test
  IC50: 0.163 µg/mL
K562; K562, Affinity test
  IC50: 0.033 µg/mL
K562; K562, Direct test
  IC50: 0.07 µg/mL
P815 cells
  EC50: 0.006 to 0.02 µg/mL (≈ 0.00819 to 0.0273 µM)
HL-60; HL-60, Affinity test
  IC50: 0.0072 µg/mL
HL-60; HL-60, Direct test
  IC50: 0.0035 µg/mL
[3]
  EC50: 0.032 µg/mL
[3]; P815, Affinity test
  IC50: 0.026 µg/mL
[3]; P815, Direct test
  IC50: 0.032 µg/mL

## CC1=C(CCC(=O)O)c2cc3[nH]c(cc4nc(cc5[nH]c(cc1n2)c(C)c5C(C)O)C(C)=C4C(C)O)c(C)c3CCC(=O)O (stereo not shown) [Hp, hematoporphyrin, reference compound]
P815 tumors; Experiment 2
  % tumor-free after 100 (days): 0%
  Mean survival time: 21.0 days
  No. of cures: 0/8
P815 tumors; Experiment 3
  % tumor-free after 100 (days): 0%
  Mean survival time: 23.4 days
  No. of cures: 0/7
P815 tumors; Experiment 4
  % tumor-free after 100 (days): 0%
  Mean survival time: 24.2 days
  No. of cures: 0/8
P815 tumors; Experiment 5
  % tumor-free after 100 (days): 0%
  Mean survival time: 27.0 days
  No. of cures: 0/8
Normal lymphocytes; Affinity test
  IC50: 0.1 µg/mL
Normal lymphocytes; Direct test
  IC50: 0.031 µg/mL
[2]
  EC50: 0.25 µg/mL
KG-1; KG-1, Affinity test
  IC50: 2.35 µg/mL
KG-1; KG-1, Direct test
  IC50: 0.96 µg/mL
K562; K562, Affinity test
  IC50: 2.5 µg/mL
K562; K562, Direct test
  IC50: 0.77 µg/mL
P815 cells
  EC50: 0.2 µg/mL (≈ 0.334 µM)
HL-60; HL-60, Affinity test
  IC50: 0.145 µg/mL
HL-60; HL-60, Direct test
  IC50: 0.064 µg/mL
[3]
  EC50: 0.58 µg/mL
[3]; P815, Affinity test
  IC50: 1.3 µg/mL
[3]; P815, Direct test
  IC50: 0.58 µg/mL

## C=Cc1c(C)c2cc3nc(cc4[nH]c(cc5nc(cc1[nH]2)C(C)=C5CCC(=O)O)c(CCC(=O)OC)c4C)C1(C)C3=CC=C(C(=O)OC)C1C(=O)OC (stereo not shown) [^3 H-BPD-MA]
Tumor and normal tissues; 180 min
  ratio of concentration in tumor to Blood: 0.52
  ratio of concentration in tumor to Brain: 3.76
  ratio of concentration in tumor to Heart: 1.09
  ratio of concentration in tumor to Intestine: 2.42
  ratio of concentration in tumor to Lung: 0.79
  ratio of concentration in tumor to Muscle: 2.68
  ratio of concentration in tumor to Skin: 2.57
  ratio of concentration in tumor to Stomach: 1.57
Tumor and normal tissues; 1440 min
  ratio of concentration in tumor to Blood: 1.45
  ratio of concentration in tumor to Brain: 3.06
  ratio of concentration in tumor to Heart: 1.71
  ratio of concentration in tumor to Intestine: 1.85
  ratio of concentration in tumor to Lung: 1.55
  ratio of concentration in tumor to Muscle: 2.98
  ratio of concentration in tumor to Skin: 1.64
  ratio of concentration in tumor to Stomach: 1.89
Tumor and normal tissues; 2880 min
  ratio of concentration in tumor to Blood: 1.37
  ratio of concentration in tumor to Brain: 2.92
  ratio of concentration in tumor to Heart: 1.63
  ratio of concentration in tumor to Intestine: 1.88
  ratio of concentration in tumor to Lung: 1.47
  ratio of concentration in tumor to Muscle: 2.77
  ratio of concentration in tumor to Skin: 1.95
  ratio of concentration in tumor to Stomach: 2.08
Tumor and normal tissues; 4320 min
  ratio of concentration in tumor to Blood: 1.66
  ratio of concentration in tumor to Brain: 2.69
  ratio of concentration in tumor to Heart: 1.46
  ratio of concentration in tumor to Intestine: 1.48
  ratio of concentration in tumor to Lung: 1.16
  ratio of concentration in tumor to Muscle: 2.16
  ratio of concentration in tumor to Skin: 1.57
  ratio of concentration in tumor to Stomach: 2.04
Tumor and normal tissues; 5760 min
  ratio of concentration in tumor to Blood: 2.77
  ratio of concentration in tumor to Brain: 4.18
  ratio of concentration in tumor to Heart: 2.24
  ratio of concentration in tumor to Intestine: 3.29
  ratio of concentration in tumor to Lung: 1.63
  ratio of concentration in tumor to Muscle: 3.45
  ratio of concentration in tumor to Skin: 2.03
  ratio of concentration in tumor to Stomach: 2.23
Tumor and normal tissues; 10080 min
  ratio of concentration in tumor to Blood: 3.65
  ratio of concentration in tumor to Brain: 6.91
  ratio of concentration in tumor to Heart: 2.51
  ratio of concentration in tumor to Intestine: 2.23
  ratio of concentration in tumor to Lung: 1.79
  ratio of concentration in tumor to Muscle: 4.23
  ratio of concentration in tumor to Skin: 3.51
  ratio of concentration in tumor to Stomach: 2.98
Tumor and normal tissues; iv
  Tumor skin ratios, most favorable time: most favorable 3 hours after IV administration
